In US7115593B2 (priority 2000, dated 2006):

System: Phytophthora infestans
Experiment: whole plant or invertebrate
Assay type: in vivo
Conditions: tomato, protective, evaluation 3 days after inoculation; for pest or weed control at 20 g/ha / pest or weed control at 1 g/ha / pest or weed control at 10 g/ha / pest or weed control at 0.1 g/ha: Phytophthora infestans, in Solanum lycopersicum, 72 h; for pest or weed control at 20 g/ha: read-out: Efficacy in %, single active compound, application rate 20 g/ha; for pest or weed control at 1 g/ha: read-out: Efficacy in %, single active compound, application rate 1 g/ha; for pest or weed control at 10 g/ha: read-out: Efficacy in %, single active compound, application rate 10 g/ha; for Efficacy in %: single active compound; for pest or weed control at 0.1 g/ha: read-out: Efficacy in %, single active compound, application rate 0.1 g/ha

O=C1c2ccccc2C(=O)N1SC(Cl)(Cl)Cl [folpet (XIX), folpet]
pest or weed control at 20 g/ha: 0%

CO/C=C(/C(=O)OC)c1ccccc1Oc1cc(Oc2ccccc2C#N)ncn1 [compound of the formula (XII) (11), azoxystrobin]
pest or weed control at 1 g/ha: 55%

O=[N+]([O-])/N=C1\NCCN1Cc1ccc(Cl)nc1 [imidacloprid (XXII), 1-[(6-chloro-3-pyridinyl)-methyl]-N-nitro-2-imidazolidinimine]
pest or weed control at 10 g/ha: 0%

CC(C)(C)C(O)C(Oc1ccc(Cl)cc1)n1cncn1 (stereo not shown) [triadimenol (IIb), 1-(4-chloro-phenoxy)-3,3-dimethyl-1-(1,2,4-triazol-1-yl)-butan-2-ol]
pest or weed control at 10 g/ha: 0%

mancozeb [mancozeb (VIIc)]
Efficacy in % (application rate 20 g/ha): 28%

CC(C)(C)C(O)(CCc1ccc(Cl)cc1)Cn1cncn1 (stereo not shown) [tebuconazole (III), tebuconazole]
pest or weed control at 10 g/ha: 5%

Cc1noc(C)c1S(=O)(=O)n1c(Cl)nc2cc3c(cc21)OC(F)(F)O3 [compound of the formula (XXVII), 1-(3,5-dimethyl-isoxazol-4-sulphonyl)-2-chloro-6,6-difluoro-[1,3]-dioxolo-[4,5f]-benzimidazole]
pest or weed control at 0.1 g/ha: 30%

O=[N+]([O-])c1cc(C(F)(F)F)c(Cl)c([N+](=O)[O-])c1Nc1ncc(C(F)(F)F)cc1Cl [fluazinam (XXXI), fluazinam]
pest or weed control at 10 g/ha: 56%

[Cl-].[Cu+2].[Cu+2].[OH-].[OH-].[OH-] [compound of the formula (XXXXVIa) (40), copper oxychloride]
Efficacy in % (application rate 50 g/ha): 0%

CC(C)OC(=O)NC(C(=O)NC(C)c1nc2ccc(F)cc2s1)C(C)C (stereo not shown) [compound of the formula (I), isopropyl 1-({[1-(6-fluoro-1,3-benzothiazol-2-yl)ethyl]-amino}carbonyl)-2-methylpropylcarbamate]
pest or weed control at 0.1 g/ha: 47%
pest or weed control at 1 g/ha: 47%

N#Cc1c(Cl)c(Cl)c(Cl)c(C#N)c1Cl [chlorothalonil (XXIX), chlorothalonil]
pest or weed control at 20 g/ha: 12%

CCC1(C(=O)NC(C)c2ccc(Cl)cc2)C(C)C1(Cl)Cl (stereo not shown) [carpropamid (V), N-[1-(4-chloro-phenyl)-ethyl]-2,2-dichloro-1-ethyl-3-methyl-cyclopropane-carboxamide]
pest or weed control at 10 g/ha: 0%

CN(C)S(=O)(=O)N(SC(F)(Cl)Cl)c1ccccc1 [dichlofluanid (IVa), dichlofluanid]
Efficacy in % (application rate 20 g/ha): 5%

CC(C)(C)C(O)C(Oc1ccc(-c2ccccc2)cc1)n1cncn1 (stereo not shown) [bitertanol (IIc), 1-(4-phenyl-phenoxy)-3,3-dimethyl-1-(1,2,4-triazol-1-yl)-butan-2-ol]
pest or weed control at 10 g/ha: 4%

CCCN(CC)CC1COC2(CCC(C(C)(C)C)CC2)O1 (stereo not shown) [spiroxamine (XI), 8-t-butyl-2-(N-ethyl-N-n-propyl-amino)-methyl-1,4-dioxaspiro[5,4]-decane]
Efficacy in % (application rate 10 g/ha): 0%

CO/N=C(/C1=NOCCO1)c1ccccc1Oc1ncnc(Oc2ccccc2Cl)c1F [compound of the formula (XIV) (13)]
pest or weed control at 1 g/ha: 8%

Cc1ccc(N(SC(F)(Cl)Cl)S(=O)(=O)N(C)C)cc1 [tolylfluanid (IVb), tolylfluanid]
Efficacy in % (application rate 20 g/ha): 21%

CC1(C(=O)Nc2ccc(O)c(Cl)c2Cl)CCCCC1 [fenhexamid (VIII), fenhexamid]
pest or weed control at 10 g/ha: 13%

OC(Cc1ccccc1Cl)(Cn1nc[nH]c1=S)C1(Cl)CC1 (stereo not shown) [compound of the formula (XXI) (20)]
pest or weed control at 10 g/ha: 2%

zinc propylene-1,2-bis-(dithiocarbamidate) [propineb (VI)]
Efficacy in % (application rate 20 g/ha): 19%

CO/N=C(/C(=O)OC)c1ccccc1CO/N=C(\C)c1cccc(C(F)(F)F)c1 [compound of the formula (XIII) (12), trifloxystrobin]
pest or weed control at 1 g/ha: 0%
